Data from PubChem BioAssay (NCI).
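Interpolation was linear, between the two tested concentrations surrounding the appropriate level; five concentrations were tested over 48 hours in 96-well plates. The concentration for 50% growth inhibition is given as GI50. Definition used: TGI = concentration required for complete inhibition of growth.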

How the values were obtained:
Test in all cases: NCI tumour cell line growth inhibition, 48 h
CAKI-1 renal = test system: CAKI-1 renal
HL-60(TB) leukemia = test system: HL-60(TB) leukemia
NCI-H226 lung = test system: NCI-H226 lung
NCI/ADR-RES ovarian = test system: NCI/ADR-RES ovarian
PC-3 prostate = test system: PC-3 prostate
SF-268 CNS = test system: SF-268 CNS
SF-539 CNS = test system: SF-539 CNS
UACC-62 melanoma = test system: UACC-62 melanoma

Compound	GI50 (CAKI-1 renal)	TGI (CAKI-1 renal)	GI50 (HL-60(TB) leukemia)	TGI (HL-60(TB) leukemia)	GI50 (NCI-H226 lung)	TGI (NCI-H226 lung)	GI50 (NCI/ADR-RES ovarian)	TGI (NCI/ADR-RES ovarian)	GI50 (PC-3 prostate)	TGI (PC-3 prostate)	GI50 (SF-268 CNS)	TGI (SF-268 CNS)	GI50 (SF-539 CNS)	TGI (SF-539 CNS)	GI50 (UACC-62 melanoma)	TGI (UACC-62 melanoma)
NC(=O)CNc1ccc([As]=[As]c2ccc(NCC(N)=O)cc2)cc1 (centres undefined)	2.41 µM	17.9 µM	1.75 µM	9.26 µM	5.62 µM	22.8 µM	9.13 µM	> 100 µM	2.7 µM	22.7 µM	2.73 µM	14 µM	2.8 µM	> 100 µM	4.2 µM	18.2 µM
COc1cc2c3c(n(CCCN(C)CCO)c(=O)c2cc1OC)-c1cc2c(cc1C3=O)OCO2	0.936 µM	> 100 µM			1.7 µM	26.5 µM	3.21 µM	31.5 µM	8.47 µM	> 62.6 µM	> 22.1 µM	> 100 µM	2.89 µM	> 33.5 µM	1.54 µM	24.7 µM
CN(C)CCNc1nc2ccccc2c2c(=O)c3cc(F)ccc3sc12	1.58 µM	2.93 µM			1.61 µM	3.14 µM	1.63 µM	3.06 µM	1.7 µM	3.37 µM			1.67 µM	3.07 µM	1.73 µM	3.18 µM
CC1(C)N=C(N)N=C(N)N1c1cccc(OCCOc2cccc([N+](=O)[O-])c2)c1	> 100 µM	> 100 µM	1.18 µM	> 77.8 µM	48.6 µM	> 100 µM	> 100 µM	> 100 µM	0.0906 µM	> 38.5 µM	0.535 µM	> 100 µM	3.41 µM	> 100 µM	2.28 µM	> 100 µM
O=C1/C(=C/N2N=C(c3ccc4ccccc4c3)CC2c2ccccc2O)SC(=S)N1c1cccnc1 (centres undefined)	1.03 µM	> 100 µM	0.616 µM	> 100 µM	4.9 µM	> 100 µM	3.43 µM	> 100 µM	0.518 µM	> 100 µM	4.08 µM	> 100 µM	1.18 µM	5.16 µM	4.06 µM	> 100 µM
c1ccc(NCCSc2nc3ccccc3s2)cc1		> 100 µM		> 100 µM				> 100 µM		> 100 µM		> 100 µM				> 100 µM
CNCCn1c(=O)c2cc(OC)c(OC)cc2c2cnc3cc4c(cc3c21)OCO4	< 0.01 µM	0.128 µM	< 0.01 µM	0.111 µM			0.032 µM	1.51 µM	0.021 µM	1.87 µM	< 0.01 µM	1.78 µM	< 0.01 µM	0.0103 µM		
COC(=O)[C@]12CC[C@@H](C)[C@H](C)[C@@H]1C1=CC[C@@H]3[C@@]4(C)C(C=O)=C[C@@](C)(COC(=O)c5ccco5)[C@@H]4[C@H](O)C[C@@]3(C)[C@]1(C)CC2	2.86 µM	> 100 µM	2.33 µM	5.84 µM	1.94 µM	4.14 µM	2.76 µM	12 µM	1.29 µM	7.55 µM	2.66 µM	12.6 µM	1.89 µM	3.93 µM	0.382 µM	2.22 µM
Clc1nc(Cl)c2ncn(Cc3ccccc3Cn3cnc4c(Cl)nc(Cl)nc43)c2n1	2.32 µM	6.41 µM	1.79 µM	9.14 µM	2.76 µM	7.16 µM	7.04 µM	17.2 µM	2.04 µM	5.53 µM	3.05 µM	12.3 µM	0.16 µM	0.719 µM	1.66 µM	3.25 µM
O=C(NC1CCCCC1)c1ccc(Nc2ncnc3c2cnn3-c2ccccc2)cc1	14 µM	> 100 µM			3.35 µM	21.5 µM	7.06 µM	> 100 µM	11.8 µM	44.8 µM	5.85 µM	> 100 µM	3.81 µM	17.1 µM	17.5 µM	> 100 µM
COc1ccc(-c2noc(N)c2-c2cc(OC)c3c(c2)OCO3)cc1	3.21 µM	> 100 µM	1.64 µM	7.6 µM	18 µM	> 100 µM	0.721 µM		3.36 µM	> 100 µM	5.47 µM	98.9 µM	1.76 µM	4.91 µM	4.22 µM	> 100 µM
Oc1ccc(Oc2cnc3ccccc3n2)cc1	29.5 µM	81.1 µM	26.3 µM	> 100 µM	> 100 µM	> 100 µM	> 100 µM	> 100 µM	54.7 µM	> 100 µM	50.3 µM	> 100 µM	77.2 µM	> 100 µM	> 100 µM	> 100 µM
Cc1c2c(C(N)=O)nccc2c(C)c2c1c1ccccc1n2Cc1ccccc1		59 µM		47 µM		69.6 µM		27.9 µM		27.7 µM		97.5 µM		37.7 µM		> 100 µM
COc1cc(C(=O)O[C@H](C(N)=O)[C@]2(C)CO2)c2cccc(C)c2c1	< 0.0211 µM						0.108 µM	0.507 µM		2.76 µM		> 100 µM	< 0.0121 µM	< 0.0465 µM	0.02 µM	0.154 µM
O=C1c2ccccc2C(=O)c2c(NCCN=Cc3ccccc3O)cccc21	0.434 µM	2.8 µM	0.235 µM	3.89 µM	7.97 µM	> 38.2 µM	10.5 µM	> 100 µM	2.18 µM	8.1 µM	2.7 µM	14.9 µM	2.96 µM	13.3 µM	5.59 µM	
Cn1cc(-c2csc(-c3cn(C)c4ccc(F)cc34)n2)c2cnccc21	1.77 µM	3.19 µM	1.93 µM	3.87 µM	2.05 µM	4.26 µM	2.03 µM	4.02 µM	1.71 µM	3.31 µM	1.93 µM	3.79 µM	1.85 µM	3.35 µM	1.74 µM	3.2 µM
Cn1c(=S)c2[nH]c(SCCCc3ccccc3)nc2n(C)c1=O		> 100 µM		> 100 µM		81.1 µM		> 100 µM		> 100 µM		> 100 µM		> 100 µM		> 100 µM

Compound	GI50 (CAKI-1 renal)	TGI (CAKI-1 renal)	GI50 (HL-60(TB) leukemia)	TGI (HL-60(TB) leukemia)	GI50 (NCI-H226 lung)	TGI (NCI-H226 lung)	GI50 (NCI/ADR-RES ovarian)	TGI (NCI/ADR-RES ovarian)	GI50 (PC-3 prostate)	TGI (PC-3 prostate)	GI50 (SF-268 CNS)	TGI (SF-268 CNS)	GI50 (SF-539 CNS)	TGI (SF-539 CNS)	GI50 (UACC-62 melanoma)	TGI (UACC-62 melanoma)
COc1ccc(-c2cc(Nc3ccnc(N4CCOCC4)n3)on2)cc1	0.089 µM	18.7 µM	0.2 µM	1.88 µM	0.751 µM	9.82 µM	0.143 µM	5.76 µM	0.241 µM	24.2 µM	1.85 µM	18.1 µM	0.264 µM	1.16 µM	0.115 µM	15.9 µM
CNC(C)[C@H]1CCC2C3CC=C4C(=O)[C@@H](NC(=O)C=C(C)C)CC[C@]4(C)C3CC[C@@]21C (some centres undefined)	1.68 µM	5.53 µM	1.83 µM	4.75 µM	2.53 µM	14.1 µM	3.44 µM	15 µM	1.9 µM	11.5 µM	1.6 µM	3.66 µM	1.3 µM	2.64 µM	1.84 µM	3.54 µM
Oc1ccc(/C=C/c2cc(O)cc3c2C(c2cc(O)cc(O)c2)C(c2ccc(O)c(O)c2)O3)cc1 (centres undefined)		98.1 µM		54.5 µM		> 100 µM		> 100 µM		> 100 µM		> 100 µM		> 100 µM		42.4 µM
C=CCn1c(SCC(=O)Nc2ccc(C(=O)/C=C/c3cc(OC)c(OC)c(OC)c3)cc2)nnc1-c1ccc(OC)cc1			0.473 µM		0.445 µM	1.55 µM	1.45 µM	17.6 µM	0.642 µM	> 100 µM	0.399 µM	11.2 µM	0.248 µM	0.666 µM	0.865 µM	3.78 µM
O=C(NNc1cnccn1)c1nc2cc(F)ccc2n2cccc12	0.422 µM	> 100 µM	0.346 µM	2.82 µM	1.57 µM	> 100 µM	0.461 µM	> 44.8 µM	0.527 µM	> 100 µM	0.551 µM	> 100 µM	0.847 µM	> 31.6 µM	0.7 µM	> 100 µM
C=C1C(O)C2C(=C(C)C13CC3)C(=O)C(C)(C)C2OC (centres undefined)	71.8 µM	> 100 µM			> 100 µM	> 100 µM	> 100 µM	> 100 µM	> 100 µM	> 100 µM	> 100 µM	> 100 µM	> 100 µM	> 100 µM	90.4 µM	> 100 µM
COc1ccc(-c2cc(-c3ccc(Nc4ccnc5cc(Cl)ccc45)cc3)nc(N3CCOCC3)n2)cc1			4.8 µM	> 100 µM	> 100 µM	> 100 µM	3.01 µM	> 100 µM			6.23 µM	> 100 µM				
O=C(N/N=C/c1ccc(O)cc1O)c1cccnc1	1.76 µM	45.6 µM	3.74 µM	> 100 µM	4.58 µM	84.3 µM	3.26 µM	> 100 µM	4.14 µM	46.9 µM	2.22 µM	59.4 µM	2.64 µM	19.3 µM	2.38 µM	17.5 µM
Cc1cc(NCCCCNc2ccnc3cc(Cl)ccc23)nc(Nc2ccc(C(=O)N3CCCCC3)cc2)n1	1.75 µM	3.47 µM			2.62 µM	7.81 µM	3.04 µM	11.4 µM	1.32 µM	3.24 µM	1.77 µM	3.64 µM				
O=C1C2[C@@H](C(=O)N1c1ccc(Br)cc1)C13C(=CC2([N+](=O)[O-])[C@@H]2C(=O)N(c4ccc(Br)cc4)C(=O)[C@@H]21)c1ccccc1N3c1ccccc1 (some centres undefined)				> 100 µM		> 100 µM						24.2 µM		> 100 µM		
NCCCn1c2c(c3ccccc3c1=O)C(=O)c1ccccc1-2	0.0435 µM	0.364 µM			0.143 µM	1.74 µM	0.145 µM	2.68 µM	0.451 µM	2.98 µM	0.498 µM	8.55 µM	0.104 µM	1.13 µM	0.247 µM	2.69 µM
COc1cc(OC)c2sc(-c3ccc(-n4cncc4-c4cc(OC)c(OC)c(OC)c4)cc3)nc2c1			3.3 µM	> 100 µM			5.65 µM	> 100 µM	2.54 µM	> 100 µM			8.59 µM	> 100 µM	4.14 µM	> 100 µM
N#CC(C#N)=C1CCCOc2c1ccc1ccccc21	> 100 µM	> 100 µM	16.7 µM	36 µM			> 100 µM	> 100 µM	39.8 µM	> 100 µM	> 100 µM	> 100 µM	> 100 µM	> 100 µM	> 100 µM	> 100 µM
COc1cc(/C=C2\CCC/C(=C\c3ccc(OCC4CO4)c(OC)c3)C2=O)ccc1OCC1CO1 (centres undefined)	3.3 µM	> 100 µM	3.59 µM	> 100 µM			4.86 µM	> 100 µM	3.13 µM	45.7 µM	2.62 µM	8.41 µM	2.4 µM	6.78 µM	2.02 µM	4.8 µM
Cc1sc2c(c1C)C(c1ccc(Cl)cc1)=N[C@@H](CC(=O)Nc1ccc(OCCOCCOCCOCCNc3cccc4c3C(=O)N(C3CCC(=O)NC3=O)C4=O)cc1)c1nnc(C)n1-2 (some centres undefined)					< 0.0212 µM	> 100 µM	> 52.8 µM	> 100 µM	< 0.02 µM	> 100 µM	0.254 µM	> 100 µM	0.242 µM	> 100 µM	< 0.0462 µM	> 100 µM
O=C(CCN1CCOCC1)Nc1cccc(-n2cc(-c3ccncc3)c(-c3ccc(Cl)c(O)c3)n2)c1			2.37 µM	6.61 µM	4.98 µM	21.4 µM	2.29 µM	> 100 µM	1.74 µM	12.9 µM	2.81 µM	14.4 µM	1.77 µM	3.72 µM	1.67 µM	13.6 µM
